How the values were obtained:
Assay type in all cases: cell-based
[1] = system: additional neuroblastoma cell lines with different genetic backgrounds; experiment: Neurite outgrowth in multiple neuroblastoma cell lines; settings: 25 nM miRNA mimic, 5 days, among the top 5 miRNAs
Method: (§1) FIG. 3A-3G. Characterization of the effect of the top 5 neurite-inducing miRNA mimics on cell differentiation and growth in multiple neuroblastoma cell lines. (A-B) Effects of the identified top 5 miRNA mimics on neurite outgrowth. BE(2)-C cells were transfected with 25 nM miRNA mimics or control for 4 days, and relative neurite lengths were quantified as above. Shown are representative cell images analyzed to define neurite and cell body areas (A) and neurite length quantifications (B). (C) Effects of the 5 miRNA mimics on expression of differentiation markers. BE(2)-C cells were transfected with 25 nM of the indicated miRNA mimics or control, and proteins levels were examined after 4 days. (D) Effects of the 5 miRNA mimics on cell proliferation rate. (E) Effect of the 5 miRNAs on neurite outgrowth in multiple cell lines. Cells were transfected with 25 nM miRNA mimics or control, and neurite lengths were quantified as above after 5 days. (F-G) Effects of miR-506-3p (F) and miR-124-3p (G) mimics on expression of differentiation markers in multiple cell lines. *, p<0.05; **, p<0.01; ***, p<0.001; **** , p<0.0001.
Detection and Quantification of Neurite Outgrowth. Cells were plated and treated in 96-well plates. […] The neurite lengths associated with each treatment were calculated using the neurite definition defined for each specific cell line using the NeuroTrack system (Essen BioScience).

[2] = system: BE(2)-C cells; experiment: Cell Viability Assay (CellTiter-Glo); settings: transfected with mimic for 4 days
Method: Cell Viability Assay. Cells were plated in 96-well format and treated as specified. After culturing for 120 h, cell viability was determined using the CellTiter-Glo Luminescent Cell Viability Assay (Promega).

[3] = system: differentiation markers; experiment: Western blots of differentiation markers in multiple neuroblastoma cell lines; settings: miRNA mimic
Method: as §1
(§2) Western Blots. […] Protein concentration was determined using the Pierce BCA assay (Thermo Fisher Scientific). […] Bound antibodies were detected with secondary antibodies conjugated with horseradish peroxidase (HRP) visualized by enhanced chemiluminescent (ECL) substrate (Pierce).

[4] = system: STAT3; experiment: Western blot of endogenous STAT3 protein; settings: miRNA overexpression, 4 days
Text: FIG. 7A-7F. Validation of CDK4 and STAT3 as direct targets that mediate the differentiation-inducing function of miR-506-3p and miR-124-3p. (A) The predicted interactions between miR-506-3p/miR-124-3p and the target sites in the 3′UTR of STAT3 and CDK4 rnRNAs. The seed sequences are underlined. (SEQ ID NOS: 1, 2, 18, 19, 20, 21) (B-C) Validation of the target sites of miR-506-3p and miR-124-3p in the 3′UTRs of (B) CDK4 and (C) STAT3 by luciferase reporter assay. BE(2)-C cells were co-transfected with the indicated vectors and miRNA mimics or control oligo. After 72 h of transfection, cells were lysed and luciferase activity was measured. […] Cells were transfected as above for 4 days, and protein levels were measured by Western blots. […] Cells were transfected with the indicated oligos, and neurite lengths were measured as above after 4 days transfection. Shown are representative cell images analyzed to define neurites and cell body areas (G) and quantification of neurite length under the indicated treatment conditions (H). **, p<0.01; *** , p<0.001; ****, p<0.0001.
as §2

[5] = system: AHR; experiment: mRNA expression profiling (Illumina microarray); settings: change of expression induced by miRNA overexpression
Method: (§3) Mrna And Mirna Expression. Total RNA was isolated as previously described (Du et al., Mol Cancer Res, 2009, 7(8):1234-43). mRNA expression profiling was done using the Illumina mRNA WG-6 v3 microarray platform. miRNA expression was measured by qRT-PCR using TaqMan microRNA Assays (Life Technologies) with average expression of RNU44 RNA, RNU19 RNA, GAPDH mRNA and 18s rRNA used as controls for normalizing RNA loading.

[6] = system: BDNF; experiment: mRNA expression profiling (Illumina microarray); settings: change of expression induced by miRNA overexpression
Method: as §3

[7] = system: CDK4; experiment: mRNA expression profiling (Illumina microarray); settings: change of expression induced by miRNA overexpression
Method: as §3

[8] = system: CEBPA; experiment: mRNA expression profiling (Illumina microarray); settings: change of expression induced by miRNA overexpression
Method: as §3

[9] = system: PML; experiment: mRNA expression profiling (Illumina microarray); settings: change of expression induced by miRNA overexpression
Method: as §3

[10] = system: RARG; experiment: mRNA expression profiling (Illumina microarray); settings: change of expression induced by miRNA overexpression
Method: as §3

[11] = system: RHOQ; experiment: mRNA expression profiling (Illumina microarray); settings: change of expression induced by miRNA overexpression
Method: as §3

[12] = system: SHC3; experiment: mRNA expression profiling (Illumina microarray); settings: change of expression induced by miRNA overexpression
Method: as §3

[13] = system: STAT3; experiment: mRNA expression profiling (Illumina microarray); settings: change of expression induced by miRNA overexpression
Method: as §3

[14] = system: THRB; experiment: mRNA expression profiling (Illumina microarray); settings: change of expression induced by miRNA overexpression
Method: as §3

hsa-miR-506-3p: miRNA mimic (Dharmacon), mature sequence UAAGGCACCCUUCUGAGUAGA (SEQ ID NO: 1) (UAAGGCACCCUUCUGAGUAGA(1); as printed in the source, key not given here)
Effect on neurite growth in multiple cell lines [1]: most potent effect on neurite growth | Cell viability when reaching plateau [2]: 6.3±0.3% | Expression of differentiation markers in all the tested cell lines [3]: dramatically induce expression of differentiation markers | Endogenous STAT3 protein expression level [4]: down-regulate | Gene expression AHR [5]: 1.19 | Gene expression BDNF [6]: 1.04 | Gene expression CDK4 [7]: 0.39 | Gene expression CEBPA [8]: 0.88 | Gene expression PML [9]: 1.01 | Gene expression RARG [10]: 1.02 | Gene expression RHOQ [11]: 1.07 | Gene expression SHC3 [12]: 1.08 | Gene expression STAT3 [13]: 0.75 | Gene expression THRB [14]: 1.04
